In the CheMixHub ionic liquid set:

Experiment: xn = mol fraction of the nth substance listed

CCCCCCCC(=O)[O-].c1c[nH+]c[nH]1 + CCO
101.3 kPa
Settings | viscosity [mPa·s]
293.15 K, x2 = 0.1984 | 53.79
293.15 K, x2 = 0.301 | 40.4
293.15 K, x2 = 0.5999 | 14.5
298.15 K, x2 = 0.8989 | 2.949
303.15 K, x2 = 0.1043 | 45
303.15 K, x2 = 0.5999 | 12
303.15 K, x2 = 0.8989 | 2.686
313.15 K, x2 = 0 | 36.92
313.15 K, x2 = 0.301 | 21.5
313.15 K, x2 = 0.5999 | 9.9
313.15 K, x2 = 0.7006 | 6.9
318.15 K, x2 = 0.5999 | 9
318.15 K, x2 = 0.8989 | 2.125

Cn1cc[n+](CCO)c1.O=C([O-])C(F)(F)C(F)(F)C(F)(F)C(F)(F)F + O
101 kPa
Settings | electrical conductivity, 298.15 K [S/m] | viscosity, 298.15 K [mPa·s] | viscosity, 308.15 K [mPa·s] | viscosity, 318.15 K [mPa·s]
x1 = 0.01954 | 1.86 | 2.373 | 1.881 | 1.521
x1 = 0.0234 | 1.85 | 2.72 | 2.129 | 1.713
x1 = 0.02752 | 1.82 | 3.1 | 2.403 | 1.914
x1 = 0.02972 | 1.79 | 3.29 | 2.55 | 2.027
x1 = 0.03222 | 1.76 | 3.67 | 2.8 | 2.204
x1 = 0.03772 | 1.67 | 4.35 | 3.3 | 2.59
x1 = 0.04078 | 1.61 | 4.62 | 3.5 | 2.73
x1 = 0.04409 | 1.55 | 4.98 | 3.72 | 2.87
x1 = 0.05152 | 1.42 | 6.18 | 4.57 | 3.51
x1 = 0.05575 | 1.35 | 6.8 | 5 | 3.8
x1 = 0.0602 | 1.27 | 7.62 | 5.55 | 4.2
x1 = 0.06471 | 1.2 | 8.23 | 5.97 | 4.49
x1 = 0.07633 | 1.04 | 9.67 | 6.91 | 5.16
x1 = 0.082 | 0.97 | 10.72 | 7.6 | 5.62
x1 = 0.08895 | 0.89 | 12.37 | 8.65 | 6.3
x1 = 0.09727 | 0.81 | 13.43 | 9.39 | 6.84
x1 = 0.1069 | 0.73 | 15.01 | 10.41 | 7.54
x1 = 0.1275 | 0.6 | 18.85 | 12.87 | 9.24
x1 = 0.1399 | 0.54 | 22.47 | 15.15 | 10.73
x1 = 0.1574 | 0.465 | 26.8 | 17.82 | 12.47
x1 = 0.1727 | 0.415 | 29.6 | 19.6 | 13.63
x1 = 0.2189 | 0.309 | 38.1 | 24.8 | 16.97
x1 = 0.2539 | 0.257 | 43.9 | 28.2 | 19.16
x1 = 0.2952 | 0.213 | 52.2 | 33.1 | 22.22
x1 = 0.3469 | 0.173 | 64.4 | 40.2 | 26.6
x1 = 0.4176 | 0.134 | 86.6 | 52.8 | 34.3
x1 = 0.5205 | 0.097 | 131.5 | 77.3 | 48.9
x1 = 0.7217 | 0.053 | 232 | 129.6 | 78.3
x1 = 1 | 0.0315 | 713 | 351 | 190.8

CC[n+]1ccn(CCOC)c1.O=S(=O)([O-])C(F)(F)F + CC(C)O
viscosity [mPa·s], 101 kPa
Settings | x1 = 0.0997 | x1 = 0.2004 | x1 = 0.3004 | x1 = 0.4003 | x1 = 0.5004 | x1 = 0.601 | x1 = 0.7 | x1 = 0.8 | x1 = 0.9 | x1 = 1
288.15 K | 4.72 | 7.33 | 10.86 | 16.19 | 21.8 | 33.6 | 47.3 | 64.2 | 85.2 | 121
293.15 K | 4.047 | 6.23 | 9.17 | 13.53 | 18.15 | 27.6 | 38 | 51.3 | 65.2 | 92.5
298.15 K | 3.489 | 5.36 | 7.83 | 11.45 | 15.16 | 22.88 | 31.09 | 41.4 | 52.2 | 72.5
303.15 K | 3.03 | 4.64 | 6.75 | 9.8 | 12.85 | 19.27 | 25.81 | 33.89 | 42.7 | 57.9
308.15 K | 2.654 | 4.06 | 5.87 | 8.47 | 11.07 | 16.64 | 21.71 | 28.27 | 35.58 | 47.3
313.15 K | 2.336 | 3.599 | 5.15 | 7.38 | 9.64 | 14.32 | 18.62 | 23.79 | 30.09 | 39
318.15 K | 2.068 | 3.192 | 4.55 | 6.49 | 8.54 | 12.42 | 16.2 | 20.22 | 25.83 | 32.59

CC[n+]1ccn(C)c1.COS(=O)(=O)[O-] + O
101 kPa
Settings | viscosity [mPa·s]
288.15 K, x2 = 0.0023 | 137.7
288.15 K, x2 = 0.8948 | 4.861
298.15 K, x2 = 0.0023 | 83.9
298.15 K, x2 = 0.0887 | 80.2
308.15 K, x2 = 0.2235 | 42.26
308.15 K, x2 = 0.4163 | 24.36
308.15 K, x2 = 0.8948 | 2.817
318.15 K, x2 = 0.0023 | 37.81
328.15 K, x2 = 0.0023 | 27.34
338.15 K, x2 = 0.4163 | 10.89
338.15 K, x2 = 0.6106 | 5.924

CC[n+]1ccn(CCOC)c1.O=S(=O)([O-])C(F)(F)F + CCO
101 kPa
Settings | viscosity [mPa·s]
288.15 K, x1 = 0.2996 | 7.66
293.15 K, x1 = 0.699 | 35.3
293.15 K, x1 = 0.797 | 47.3
293.15 K, x1 = 0.899 | 64.4
298.15 K, x1 = 0.1999 | 3.6
298.15 K, x1 = 0.797 | 38.9
303.15 K, x1 = 0.0996 | 1.934
303.15 K, x1 = 0.1999 | 3.231
303.15 K, x1 = 1 | 57.9
308.15 K, x1 = 0.603 | 14.85
308.15 K, x1 = 0.797 | 26.79
308.15 K, x1 = 0.899 | 37.34
313.15 K, x1 = 0.797 | 22.71
318.15 K, x1 = 0.797 | 19.43
